According to PMC13059744 (mBio, 2026):

Tested on: cabABC promoter (PcabABC-luc) in S. mitis G22
Experiment: cabABC expression, PcabABC-luc reporter in S. mitis G22
Assay type: cell-based, Streptococcus mitis
Settings: after CSPG22 treatment in acidic medium; Fig. S3B

With ESRLSRLLRDFIFQIKQ [CSPG22] the “time of peak cabABC expression post-induction” value was “approximately 70 min”.
